Measured values reported in ChEMBL document CHEMBL1201862, “PubChem BioAssay data set” (2004).
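Assay format: 96-well plates, 48-hour exposure. GI50 is the concentration that inhibits growth by half.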 Calls of active or inactive are those of the source. Rule as the data show it: active = GI50 up to about 1.1 µM and inactive = higher.

Assays:
Experiment in all cases: DTP human tumour cell line panel, 48 h
HCT-116 = tested on: HCT-116
SF-268 = tested on: SF-268
RPMI-8226 = tested on: RPMI-8226
TK-10 = tested on: TK-10
UACC-62 = tested on: UACC-62
PC-3 = tested on: PC-3
SK-MEL-5 = tested on: SK-MEL-5
MDA-MB-435 = tested on: MDA-MB-435
CCRF-CEM = tested on: CCRF-CEM
OVCAR-5 = tested on: OVCAR-5
SN12C = tested on: SN12C
NCI-H226 = tested on: NCI-H226
ACHN = tested on: ACHN
UO-31 = tested on: UO-31
A498 = tested on: A498
Hs-578T = tested on: Hs-578T
MCF7 = tested on: MCF7
HT-29 = tested on: HT-29
SK-OV-3 = tested on: SK-OV-3
NCI-H460 = tested on: NCI-H460

Structure (SMILES)	GI50 (HCT-116)	GI50 (SF-268)	GI50 (RPMI-8226)	GI50 (TK-10)	GI50 (UACC-62)	GI50 (PC-3)	GI50 (SK-MEL-5)	GI50 (MDA-MB-435)	GI50 (CCRF-CEM)	GI50 (OVCAR-5)	GI50 (SN12C)	GI50 (NCI-H226)	GI50 (ACHN)	GI50 (UO-31)	GI50 (A498)	GI50 (Hs-578T)	GI50 (MCF7)	GI50 (HT-29)	GI50 (SK-OV-3)	GI50 (NCI-H460)
CN(C)S(=O)(=O)c1nc(Cl)c2nc[nH]c2n1	> 100 µM (inactive)	> 100 µM (inactive)	> 100 µM (inactive)	> 100 µM (inactive)	> 100 µM (inactive)	> 100 µM (inactive)	> 100 µM (inactive)	> 100 µM (inactive)	> 100 µM (inactive)	> 100 µM (inactive)	> 100 µM (inactive)	> 100 µM (inactive)	> 100 µM (inactive)	> 100 µM (inactive)	> 100 µM (inactive)	> 100 µM (inactive)	> 100 µM (inactive)	> 100 µM (inactive)	> 100 µM (inactive)	–
CC1C2CC(C/C2=N/O)C1(C)C (stereo not given)	> 100 µM (inactive)	> 100 µM (inactive)	–	> 100 µM (inactive)	> 100 µM (inactive)	> 100 µM (inactive)	> 100 µM (inactive)	> 100 µM (inactive)	> 100 µM (inactive)	> 100 µM (inactive)	> 100 µM (inactive)	> 100 µM (inactive)	> 100 µM (inactive)	> 100 µM (inactive)	> 100 µM (inactive)	> 100 µM (inactive)	> 100 µM (inactive)	> 100 µM (inactive)	> 100 µM (inactive)	> 100 µM (inactive)
CC1NOC(NS(=O)(=O)c2ccc(/N=N/c3c(O)c(C(=O)O)cc4ccccc34)cc2)C1C (stereo not given)	> 100 µM (inactive)	> 100 µM (inactive)	> 100 µM (inactive)	> 100 µM (inactive)	> 100 µM (inactive)	> 100 µM (inactive)	> 100 µM (inactive)	> 100 µM (inactive)	> 100 µM (inactive)	> 100 µM (inactive)	–	> 100 µM (inactive)	> 100 µM (inactive)	55 µM (inactive)	–	> 100 µM (inactive)	> 100 µM (inactive)	> 100 µM (inactive)	> 100 µM (inactive)	> 100 µM (inactive)
O=C(CSc1nc2ccc(I)cc2c(=O)n1Cc1ccccc1)Nc1ccc(Br)cc1	88.5 µM (inactive)	12.2 µM (inactive)	> 100 µM (inactive)	–	> 100 µM (inactive)	17.5 µM (inactive)	43.2 µM (inactive)	> 100 µM (inactive)	> 100 µM (inactive)	44.5 µM (inactive)	37.2 µM (inactive)	25.9 µM (inactive)	> 100 µM (inactive)	0.114 µM (active)	22.5 µM (inactive)	17.8 µM (inactive)	> 100 µM (inactive)	> 100 µM (inactive)	> 100 µM (inactive)	–
CC(C)(C)n1[nH]c(=O)n(C(C)(C)C)c1=O	> 100 µM (inactive)	> 100 µM (inactive)	> 100 µM (inactive)	> 100 µM (inactive)	> 100 µM (inactive)	> 100 µM (inactive)	> 100 µM (inactive)	> 100 µM (inactive)	> 10 µM (inactive)	> 100 µM (inactive)	> 100 µM (inactive)	–	> 100 µM (inactive)	> 100 µM (inactive)	> 100 µM (inactive)	> 100 µM (inactive)	> 100 µM (inactive)	–	> 100 µM (inactive)	> 100 µM (inactive)
Cc1coc2c1[C@@H](O)[C@@]1(C)[C@H](CCC[C@@H]1C)C2	33.5 µM (inactive)	34.6 µM (inactive)	31.8 µM (inactive)	> 100 µM (inactive)	56.2 µM (inactive)	36.5 µM (inactive)	49.9 µM (inactive)	15.1 µM (inactive)	37.6 µM (inactive)	67 µM (inactive)	24.7 µM (inactive)	25.5 µM (inactive)	33.8 µM (inactive)	–	–	61.7 µM (inactive)	> 100 µM (inactive)	42.8 µM (inactive)	48.4 µM (inactive)	45.5 µM (inactive)
Cc1cc2ccccc2n1CC(=O)NCC(C)C	> 100 µM (inactive)	> 100 µM (inactive)	> 100 µM (inactive)	> 100 µM (inactive)	> 100 µM (inactive)	> 100 µM (inactive)	> 100 µM (inactive)	> 100 µM (inactive)	> 100 µM (inactive)	> 100 µM (inactive)	> 100 µM (inactive)	> 100 µM (inactive)	> 100 µM (inactive)	> 100 µM (inactive)	–	> 100 µM (inactive)	> 100 µM (inactive)	> 100 µM (inactive)	> 100 µM (inactive)	> 100 µM (inactive)
COc1cc(S(=O)(=O)Nc2ccc(-c3csc(/N=C\c4ccccc4O)n3)cc2)ccc1Cl	43.1 µM (inactive)	42 µM (inactive)	29.6 µM (inactive)	–	31.6 µM (inactive)	39.4 µM (inactive)	70.5 µM (inactive)	36.1 µM (inactive)	22.3 µM (inactive)	> 100 µM (inactive)	65.2 µM (inactive)	> 100 µM (inactive)	62.2 µM (inactive)	31 µM (inactive)	> 100 µM (inactive)	> 100 µM (inactive)	22.6 µM (inactive)	> 100 µM (inactive)	> 100 µM (inactive)	–
CC(=O)Oc1c(C)c2c(O)c3c1C1=C(OCOC1=C(C)C3=O)/C(C)=C/C(C)(O)C(O)C(C)C(O)C1C(=O)OC(C(C)C1O)C(C)(O)/C=C\C=C(C)C(=O)N2 (stereo not given)	57.1 µM (inactive)	31.8 µM (inactive)	86.9 µM (inactive)	–	30.8 µM (inactive)	27.5 µM (inactive)	32.4 µM (inactive)	> 100 µM (inactive)	21.5 µM (inactive)	4.46 µM (inactive)	35 µM (inactive)	18.1 µM (inactive)	33.9 µM (inactive)	11.1 µM (inactive)	15.1 µM (inactive)	25.7 µM (inactive)	37.1 µM (inactive)	> 100 µM (inactive)	35.5 µM (inactive)	> 100 µM (inactive)
Cc1ccc2[nH]/c(=N/S(=O)(=O)c3cc(C)c(Cl)cc3S)[nH]c2c1	46.6 µM (inactive)	39.8 µM (inactive)	40 µM (inactive)	> 100 µM (inactive)	> 100 µM (inactive)	50 µM (inactive)	31.3 µM (inactive)	28.4 µM (inactive)	21.4 µM (inactive)	> 100 µM (inactive)	> 100 µM (inactive)	–	41.2 µM (inactive)	57 µM (inactive)	52.8 µM (inactive)	88.3 µM (inactive)	64.1 µM (inactive)	> 100 µM (inactive)	> 100 µM (inactive)	16.4 µM (inactive)
O=C(c1ccccc1)N1C(=S)N(c2ccc([N+](=O)[O-])cc2)C(=N/c2ccccc2)/C1=N\c1ccccc1	–	> 100 µM (inactive)	> 100 µM (inactive)	> 100 µM (inactive)	97.5 µM (inactive)	40.6 µM (inactive)	> 100 µM (inactive)	> 100 µM (inactive)	–	> 100 µM (inactive)	> 100 µM (inactive)	> 100 µM (inactive)	52 µM (inactive)	> 100 µM (inactive)	–	> 100 µM (inactive)	> 100 µM (inactive)	> 100 µM (inactive)	> 100 µM (inactive)	72.1 µM (inactive)
C/C=C\C(CC(=O)O)CC(=O)NCCC1CN(S(=O)(=O)C(F)(F)F)c2ccccc21 (stereo not given)	> 100 µM (inactive)	> 100 µM (inactive)	> 100 µM (inactive)	–	> 100 µM (inactive)	> 100 µM (inactive)	> 100 µM (inactive)	> 100 µM (inactive)	> 100 µM (inactive)	> 100 µM (inactive)	–	–	> 100 µM (inactive)	> 100 µM (inactive)	> 100 µM (inactive)	> 100 µM (inactive)	> 100 µM (inactive)	> 100 µM (inactive)	> 100 µM (inactive)	> 100 µM (inactive)
CC1(C)C(O)C[C@]23CCC[C@](C)(C[C@@H](O)C12)C3 (stereo not given in full)	–	> 100 µM (inactive)	> 100 µM (inactive)	> 100 µM (inactive)	> 100 µM (inactive)	> 100 µM (inactive)	> 100 µM (inactive)	> 100 µM (inactive)	> 100 µM (inactive)	> 100 µM (inactive)	> 100 µM (inactive)	> 100 µM (inactive)	> 100 µM (inactive)	> 100 µM (inactive)	–	> 100 µM (inactive)	> 100 µM (inactive)	> 100 µM (inactive)	> 100 µM (inactive)	> 100 µM (inactive)
C1=CC(=[N+]2N=C(c3ccccc3)CC2c2ccccc2)C=CC1=C1SC(c2ccccc2)(c2ccccc2)c2ccccc21.[O-][Cl+3]([O-])([O-])[O-] (stereo not given)	93.5 µM (inactive)	> 100 µM (inactive)	–	> 100 µM (inactive)	> 100 µM (inactive)	> 100 µM (inactive)	> 100 µM (inactive)	> 100 µM (inactive)	> 100 µM (inactive)	> 100 µM (inactive)	> 100 µM (inactive)	> 100 µM (inactive)	> 100 µM (inactive)	> 100 µM (inactive)	> 100 µM (inactive)	> 100 µM (inactive)	> 100 µM (inactive)	> 100 µM (inactive)	> 100 µM (inactive)	> 100 µM (inactive)
Oc1cc(Cc2ccccc2)c(Cc2ccccc2)cc1O	> 10 µM (inactive)	> 10 µM (inactive)	> 10 µM (inactive)	–	> 10 µM (inactive)	> 10 µM (inactive)	> 10 µM (inactive)	> 10 µM (inactive)	> 10 µM (inactive)	> 10 µM (inactive)	> 10 µM (inactive)	> 10 µM (inactive)	> 10 µM (inactive)	> 10 µM (inactive)	> 10 µM (inactive)	> 10 µM (inactive)	> 10 µM (inactive)	> 10 µM (inactive)	> 10 µM (inactive)	> 10 µM (inactive)
